Assay results from ChEMBL document CHEMBL1828614, “Discovery of a new class of HMG-CoA reductase inhibitor from Polyalthia longifolia as potential lipid lowering agent” (Eur J Med Chem, 2011).

What was measured:
Syrian golden hamster [1] = experiment: Toxicity in Syrian golden hamster assessed as weight gain at 25 mg/kg, po; assay type: organism-based, Mesocricetus auratus; parameters: dose 25 mg/kg, route oral; settings: in vivo
Syrian golden hamster [2] = experiment: Toxicity in Syrian golden hamster assessed as effect of food intake at 25 mg/kg, po; assay type: organism-based, Mesocricetus auratus; parameters: dose 25 mg/kg, route oral; settings: in vivo
Syrian golden hamster [3] = experiment: Hypolipidemic activity in high fat diet fed Syrian golden hamster assessed as reduction of total cholesterol level at 5 mg/kg, po for 7 days; assay type: functional, Mesocricetus auratus; parameters: scale not given: the % may be the effect or the level left
[4] = Cmax in high fat diet fed Syrian golden hamster at 25 mg/kg, po; assay type: ADME, organism-based, Mesocricetus auratus; parameters: dose 25 mg/kg, route oral; settings: in vivo
Syrian golden hamster [5] = experiment: Hypolipidemic activity in high fat diet fed Syrian golden hamster assessed as reduction of glycerol level at 50 mg/kg, po for 7 days; assay type: functional, Mesocricetus auratus; parameters: scale not given: the % may be the effect or the level left
Syrian golden hamster [6] = experiment: Hypolipidemic activity in high fat diet fed Syrian golden hamster assessed as reduction of glycerol level at 5 mg/kg, po for 7 days; assay type: functional, Mesocricetus auratus; parameters: scale not given: the % may be the effect or the level left
[7] = Mean residence time in high fat diet fed Syrian golden hamster at 25 mg/kg, po; assay type: ADME, organism-based, Mesocricetus auratus; parameters: dose 25 mg/kg, route oral; settings: in vivo
Syrian golden hamster [8] = experiment: Hypolipidemic activity in high fat diet fed Syrian golden hamster assessed as reduction of total cholesterol level at 50 mg/kg, po for 7 days; assay type: functional, Mesocricetus auratus; parameters: scale not given: the % may be the effect or the level left
Syrian golden hamster [9] = experiment: Hypolipidemic activity in high fat diet fed Syrian golden hamster assessed as increase in HDL-cholesterol-total cholesterol ratio at 10 mg/kg, po for 7 days; assay type: functional, Mesocricetus auratus
Syrian golden hamster [10] = experiment: Hypolipidemic activity in high fat diet fed Syrian golden hamster assessed as reduction of total cholesterol level at 10 mg/kg, po for 7 days; assay type: functional, Mesocricetus auratus; parameters: scale not given: the % may be the effect or the level left
Syrian golden hamster [11] = experiment: Hypolipidemic activity in high fat diet fed Syrian golden hamster assessed as increase in HDL-cholesterol-total cholesterol ratio at 100 mg/kg, po for 7 days; assay type: functional, Mesocricetus auratus
Syrian golden hamster [12] = experiment: Hypolipidemic activity in high fat diet fed Syrian golden hamster assessed as increase in HDL-cholesterol-total cholesterol ratio at 25 mg/kg, po for 7 days; assay type: functional, Mesocricetus auratus
Syrian golden hamster [13] = experiment: Hypolipidemic activity in high fat diet fed Syrian golden hamster assessed as reduction of glycerol level at 25 mg/kg, po for 7 days; assay type: functional, Mesocricetus auratus; parameters: scale not given: the % may be the effect or the level left
Syrian golden hamster [14] = experiment: Hypolipidemic activity in high fat diet fed Syrian golden hamster assessed as reduction of triglyceride level at 5 mg/kg, po for 7 days; assay type: functional, Mesocricetus auratus; parameters: scale not given: the % may be the effect or the level left
[15] = Tmax in high fat diet fed Syrian golden hamster at 25 mg/kg, po; assay type: ADME, organism-based, Mesocricetus auratus; parameters: dose 25 mg/kg, route oral; settings: in vivo
Syrian golden hamster [16] = experiment: Hypolipidemic activity in high fat diet fed Syrian golden hamster assessed as reduction of triglyceride level at 100 mg/kg, po for 7 days; assay type: functional, Mesocricetus auratus; parameters: scale not given: the % may be the effect or the level left
Syrian golden hamster [17] = experiment: Hypolipidemic activity in high fat diet fed Syrian golden hamster assessed as reduction of triglyceride level at 50 mg/kg, po for 7 days; assay type: functional, Mesocricetus auratus; parameters: scale not given: the % may be the effect or the level left
[18] = Apparent oral clearance in high fat diet fed Syrian golden hamster at 25 mg/kg, po; assay type: ADME, organism-based, Mesocricetus auratus; parameters: dose 25 mg/kg, route oral; settings: in vivo
Syrian golden hamster [19] = experiment: Hypolipidemic activity in high fat diet fed Syrian golden hamster assessed as reduction of glycerol level at 100 mg/kg, po for 7 days; assay type: functional, Mesocricetus auratus; parameters: scale not given: the % may be the effect or the level left
Syrian golden hamster [20] = experiment: Hypolipidemic activity in high fat diet fed Syrian golden hamster assessed as reduction of glycerol level at 10 mg/kg, po for 7 days; assay type: functional, Mesocricetus auratus; parameters: scale not given: the % may be the effect or the level left
Syrian golden hamster [21] = experiment: Apparent volume of distribution in high fat diet fed Syrian golden hamster at 25 mg/kg, po; assay type: ADME, organism-based, Mesocricetus auratus; parameters: dose 25 mg/kg, route oral; settings: in vivo
[22] = AUC (0 to t) in high fat diet fed Syrian golden hamster at 25 mg/kg, po; assay type: ADME, organism-based, Mesocricetus auratus; parameters: dose 25 mg/kg, route oral; settings: plasma
Syrian golden hamster [23] = experiment: Hypolipidemic activity in high fat diet fed Syrian golden hamster assessed as reduction of triglyceride level at 25 mg/kg, po for 7 days; assay type: functional, Mesocricetus auratus; parameters: scale not given: the % may be the effect or the level left
Syrian golden hamster [24] = experiment: Hypolipidemic activity in high fat diet fed Syrian golden hamster assessed as reduction of total cholesterol level at 100 mg/kg, po for 7 days; assay type: functional, Mesocricetus auratus; parameters: scale not given: the % may be the effect or the level left
Syrian golden hamster [25] = experiment: Hypolipidemic activity in high fat diet fed Syrian golden hamster assessed as increase in HDL-cholesterol-total cholesterol ratio at 5 mg/kg, po for 7 days; assay type: functional, Mesocricetus auratus
[26] = target: T1, 3-hydroxy-3-methylglutaryl-coenzyme A reductase (Homo sapiens, UniProt P04035); experiment: Inhibition of HMG-CoA reductase using HMG-CoA as substrate by spectrophotometry in presence of NADPH
T1 sequence (P04035 whole entry): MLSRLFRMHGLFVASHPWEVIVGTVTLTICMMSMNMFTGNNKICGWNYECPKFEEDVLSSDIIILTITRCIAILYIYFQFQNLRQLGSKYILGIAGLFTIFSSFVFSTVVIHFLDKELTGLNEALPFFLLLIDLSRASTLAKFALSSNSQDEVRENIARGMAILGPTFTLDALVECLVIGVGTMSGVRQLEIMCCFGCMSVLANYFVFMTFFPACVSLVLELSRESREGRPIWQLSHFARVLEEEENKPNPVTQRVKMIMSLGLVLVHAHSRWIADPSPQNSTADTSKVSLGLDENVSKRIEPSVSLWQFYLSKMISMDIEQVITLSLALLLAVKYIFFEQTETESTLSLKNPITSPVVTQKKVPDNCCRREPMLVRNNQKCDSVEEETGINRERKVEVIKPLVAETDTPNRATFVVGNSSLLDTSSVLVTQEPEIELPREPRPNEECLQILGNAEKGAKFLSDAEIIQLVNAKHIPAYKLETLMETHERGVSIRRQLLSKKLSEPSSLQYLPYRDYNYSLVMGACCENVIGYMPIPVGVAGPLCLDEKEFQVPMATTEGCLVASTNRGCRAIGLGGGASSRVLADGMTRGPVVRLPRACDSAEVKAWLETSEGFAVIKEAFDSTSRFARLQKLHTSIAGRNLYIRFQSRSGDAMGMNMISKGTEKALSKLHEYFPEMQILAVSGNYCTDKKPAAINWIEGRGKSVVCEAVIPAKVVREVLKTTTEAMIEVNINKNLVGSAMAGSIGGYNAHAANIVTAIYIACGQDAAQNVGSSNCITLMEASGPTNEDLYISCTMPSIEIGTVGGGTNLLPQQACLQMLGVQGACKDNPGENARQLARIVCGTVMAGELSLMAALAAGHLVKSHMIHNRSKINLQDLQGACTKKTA

Syrian golden hamster [27] = experiment: Hypolipidemic activity in high fat diet fed Syrian golden hamster assessed as increase in HDL-cholesterol-total cholesterol ratio at 50 mg/kg, po for 7 days; assay type: functional, Mesocricetus auratus
Syrian golden hamster [28] = experiment: Hypolipidemic activity in high fat diet fed Syrian golden hamster assessed as reduction of triglyceride level at 10 mg/kg, po for 7 days; assay type: functional, Mesocricetus auratus; parameters: scale not given: the % may be the effect or the level left
Syrian golden hamster [29] = experiment: Hypolipidemic activity in high fat diet fed Syrian golden hamster assessed as reduction of total cholesterol level at 25 mg/kg, po for 7 days; assay type: functional, Mesocricetus auratus; parameters: scale not given: the % may be the effect or the level left

For CC1=CCC[C@@H]2[C@@](C)(CC/C(C=O)=C\C(=O)O)[C@H](C)CC[C@@]12C, the Activity (Syrian golden hamster [1]) was “Non-toxic” and the Activity (Syrian golden hamster [2]) was “Non-toxic”.

With C=C1[C@@H](O)CC[C@@H]2[C@@](C)(CCC3=CC(=O)O[C@@H]3O)[C@H](C)CC[C@@]12C the Activity (Syrian golden hamster [1]) was “Non-toxic” and the Activity (Syrian golden hamster [2]) was “Non-toxic”.

In the case of CC1=CCC[C@@H]2[C@@](C)(CCC3=CC(=O)O[C@@H]3O)[C@H](C)CC[C@@]12C, the Activity (Syrian golden hamster [3]) is reported as 27%, the Cmax [4] is reported as 2490 ng/mL and the Activity (Syrian golden hamster [5]) is reported as 48%. For the same compound, the Activity (Syrian golden hamster [6]) was 10%, the Activity (Syrian golden hamster [1]) was “Non-toxic” and the MRT [7] was 4.52 h. The Activity (Syrian golden hamster [8]) was 55%, the Ratio (Syrian golden hamster [9]) was 12 and the Activity (Syrian golden hamster [2]) was “Non-toxic”. The Activity (Syrian golden hamster [10]) was 23%, the Ratio (Syrian golden hamster [11]) was 46 and the Ratio (Syrian golden hamster [12]) was 48. For the same compound, the Activity (Syrian golden hamster [13]) was 37%, the Activity (Syrian golden hamster [14]) was 19% and the Tmax [15] was 0.5 h. The Activity (Syrian golden hamster [16]) was 43%, the Activity (Syrian golden hamster [17]) was 46% and the CL/F [18] was 72.5 mL/min/kg. For the same compound, the Activity (Syrian golden hamster [19]) was 43%, the Activity (Syrian golden hamster [20]) was 5% and the Vz (Syrian golden hamster [21]) was 17.78 L/kg. For the same compound, the AUC(0-t) [22] was 5740 ng·h/mL, the Activity (Syrian golden hamster [23]) was 45% and the Activity (Syrian golden hamster [24]) was 54%. For the same compound, the Ratio (Syrian golden hamster [25]) was 12, the IC50 [26] was 30.2 µM and the Ratio (Syrian golden hamster [27]) was 54. The Activity (Syrian golden hamster [28]) was 26% and the Activity (Syrian golden hamster [29]) was 41%.

In the case of CC1=C(C=O)CC2[C@@]1(C)CC[C@@H](C)[C@]2(C)CCC1=CC(=O)O[C@@H]1O (mixture of isomers), the Activity (Syrian golden hamster [1]) is reported as “Non-toxic” and the Activity (Syrian golden hamster [2]) is reported as “Non-toxic”.

For CC[C@H](C)C(=O)O[C@H]1C[C@@H](C)C=C2C=C[C@H](C)[C@H](CC[C@@H]3C[C@@H](O)CC(=O)O3)[C@H]21 [LOVASTATIN], the Activity (Syrian golden hamster [13]) was 35%, the Activity (Syrian golden hamster [23]) was 29% and the Activity (Syrian golden hamster [29]) was 9%.
